{"source": "patent US7576177B2", "about": "“Hsp peptides and analogs for modulation of immune responses via antigen presenting cells” (Andromeda Biotech Ltd., priority 2002, dated 2009)", "key": {"[1]": {"test_system": "peripheral blood mononuclear cells cultured with GM-CSF and IL4 (dendritic cells)", "experiment": "Peripheral blood derived dendritic cells: secreted cytokines (IP-10, IL-8) and cell surface antigens (CD83, CD86)", "assay_type": "cell-based, human", "details": "for IL-8 / IP-10: overnight", "method": "The effect of the compositions of the present invention on peripheral blood derived dendritic cells, was tested according to a protocol described by Re, F. and Strominger, J. L. 2001. Toll-like receptor 2 (Tlr2) and Tlr4 differentially activate human dendritic cells. (J Biol Chem 276: 37692-9). According to this method immature dendritic cells derived from human peripheral blood are used. The outcome after incubating the cells with tested molecules is different if the stimulation is through the Toll 4 receptor or the Toll 2 receptor. According to the authors, Toll 2 signaling by stimulation with zymosan is associated with a Th2 kind of response (exemplified by IL-8) and Toll 4 signaling, such as obtained by LPS stimulation (exemplified by IP-10), with a Th1 type of response. The compositions of the present invention were tested using a similar assay system in order to check which stimulation type they induce. […] The increase in CD86 expression after exposure of APCs to Hsps or Hsp derived peptides is important since CD86 (B7.2) is an essential component of the immunological synapse formed between T cells and APC. This synapse consists of CD80 and CD86 on the side of the APC and CD28 and CD40 on the side of the T cell. T cell recognition of peptide on APC without the concurrent expression of CD86 gives rise to anergy instead of a T cell response. Therefore in order to produce a response all components must be present.\nThe assay was based on the protocol described by Re, F. and Strominger, J. L. 2001. Toll-like receptor 2 (Tlr2) and Tlr4 differentially activate human dendritic cells. (J. Biol Chem 276: 37692-9).\nPeripheral blood mononuclear cells were prepared from leucocytes from blood lots obtained from the blood bank. The cells were plated at 10^8 cells/10 ml/Petri dish in RPMI medium including 10% FCS and allowed to adhere at 37° C. for 2 hours. At the end of this time, the non-adherent cells were washed off the plates with PBS and the adherent cells resuspended in fresh medium as before. The cells were then cultured for at least 8 days with the addition of GM-CSF and IL4 with the medium changed every 4 days. After this time, the cells were harvested and cultured overnight with LPS, zymosan or p277(Val^6-Va^11). The next day, the supernatant was collected for assay of the secreted cytokines (IP-10 and IL-8) and the cells were harvested for investigation of the cell surface antigens (CD83, CD86). CD83 is an antigen characteristic of dendritic cells. […] The second marker, CD86 (B7.2) is characteristic of mature dendritic cells. The marker CD86 is an essential component of the immunological synapse formed between T cells and APC. This synapse consists of CD80 and CD86 on the side of the APC and CD28 and CD40 on the side of the T cell. This is of course in addition to the specific recognition between the T cell receptor and peptide held in the MHC of the APC. T cell recognition of peptide on APC without the concurrent expression of CD86 gives rise to anergy instead of a T cell response."}, "[2]": {"test_system": "BALB/c DO.11.10 bone marrow cells cultured for dendritic cells, cocultured with DO.11.10 T cells", "experiment": "Education of mouse dendritic cells and stimulation of T-cells, cytokine content of supernatant", "assay_type": "cell-based", "details": "for IFN secretion of T cells / IL-4 secretion of T cells / IL-10 secretion of T cells / IL-12 secretion of T cells: 0.3 nM Ova peptide", "method": "Whelan et al. (J. Immunol 164, 6453-6460, 2000) addressed the problem in mice by an experiment in which mouse bone marrow cells were grown for 6 days in culture with GM-CSF to give immature dendritic cells. These dendritic cells were then incubated overnight with LPS (known to drive cells to DC1) or with a nematode antigen. The reason for the choice of nematode antigen was that injection of this antigen in vivo gives rise to a Th2 response in animals. After this so-called “education” of the dendritic cells, they were washed and subsequently incubated with naive T cells in the presence of antigenic stimulus. The experiment was possible because of the use of transgenic mice in which all the T cells respond to the same peptide (OVA323-339) which absolves the system from any question of bias of the T cell response at the level of the T cells. Any bias should be a consequence of the “education” of the dendritic cells. After three days of incubation the cytokine responses produced by the T cells, were measured by ELISA. […] In contrast, nematode antigen incubation gave rise to more IL-4 (Th2) than did controls while the LPS incubation inhibited the IL4 response. Therefore, the nematode antigen was said to drive cells to DC2. A similar method was used for testing the compounds of the present invention: • 1. Bone marrow cells were extracted from the leg bones of DO.11.10 mice transgenic for the TcR. All cells from these mice respond to the OVA peptide ([…]). • 2. Bone marrow cells were plated at 10^6 cells/ml in 100 mm diameter tissue culture petri dishes in Iscove's medium supplemented with 10% FCS, […], 1 mM sodium pyruvate, penicillin/streptomycin (according to manufacturer's recommendations), non-essential amino acids, 50 μM β-mercaptoethanol and 10 ng/ml mGM-CSF. • 3. After 4 days, the medium was carefully removed and replaced with fresh medium • 4. After 6 days, the non-adherent cells were harvested and used as immature dendritic cells • 5. The immature dendritic cells are plated at 1×10^6 cells/ml, 1 ml/well in 24 well plates in the above medium with various reagents added at various concentrations and incubated overnight. This is the stage in which the dendritic cells are “educated” • 6. The next day the cells were harvested and washed 3 times then resuspended at 5×10^4 cells/ml in 1 ml of the above medium but without the addition of GM-CSF to be cocultured with T cells • 7. […] 5×10^5 T cells were cultured with the dendritic cells from step 6 in the presence of various concentrations of the OVA peptide (0, 0.3 nM, 3 nM and 30 nM). • 9. After 3 days PMA (50 ng/ml) and ionomycin (500 ng/ml) were added to further stimulate the cells. • 10. The next day the cell supernatants were collected and assayed for cytokine content (Interferon γ, IL4, IL-10 and IL-12).\nThe compound was tested for stimulation of DO.11.10 bone marrow cells according to the assay described above (Production and education of mouse dendritic cells and stimulation of T-cells).\nBALB/c DO.11.10 bone marrow cells were cultured for dendritic cells and then stimulated with LPS 1 μg/ml, LPS 10 μg/ml, hsp60 3 μg/ml, hsp60 10 μg/ml, p277 5 μg/ml and p277 50 μg/ml. The cells were then transferred to wells with T cells from fresh BALB/c DO.11.10 mice and stimulated with OVA peptide at different concentrations (0, 0.3 nM, 3 nM, 30 nM). Supernatant was collected after 48 hours for assay. 30 μl was taken for IFN, 40 μl for IL4 and IL-10 and 50 μl for IL-12 assays. The results are presented in the following tables, as amount of cytokine (pg/ml), and in FIG. 1."}, "[3]": {"details": "dendritic cells educated with 5 μg/ml"}, "[4]": {"details": "dendritic cells educated with 50 μg/ml"}}, "data": [{"sequence": "VLGGGVALLRVIPALDSLTPANED [p277(Val^6-Val^11)]", "values": [{"measurement": "IL-8 secretion (in words)", "setting": "[1]; overnight stimulation", "value": "resulted in IL-8 secretion"}, {"measurement": "IP-10 secretion (in words)", "setting": "[1]; overnight stimulation", "value": "no IP-10 secretion"}, {"measurement": "maturation: percentage of cells stained with anti-CD86", "setting": "[1]; overnight stimulation, FIG. 3", "value": "increase of maturation"}, {"measurement": "IL-8", "setting": "[1]; stimulus 0.5 ng/ml", "value": 2368, "unit": "pg/mL"}, {"measurement": "IP-10", "setting": "[1]; stimulus 0.5 ng/ml", "value": -1, "unit": "pg/mL"}, {"measurement": "IP-10", "setting": "[1]; stimulus 5 ng/ml", "value": 2, "unit": "pg/mL"}, {"measurement": "IL-8", "setting": "[1]; stimulus 50 ng/ml", "value": 2574, "unit": "pg/mL"}, {"measurement": "IP-10", "setting": "[1]; stimulus 50 ng/ml", "value": 39, "unit": "pg/mL"}, {"measurement": "IP-10", "setting": "[1]; stimulus 0.5 μg/ml", "value": 21, "unit": "pg/mL"}, {"measurement": "IL-4 produced by T cells after exposure of dendritic cells (in words)", "setting": "[2]; compared with non-exposed dendritic cells", "value": "more IL-4 than non-exposed dendritic cells"}, {"measurement": "IFN secretion of T cells", "setting": "[2]; [3]", "value": 722.22, "unit": "pg/mL"}, {"measurement": "IL-4 secretion of T cells", "setting": "[2]; [3]", "value": 36.96, "unit": "pg/mL"}, {"measurement": "IL-10 secretion of T cells", "setting": "[2]; [3]", "value": 32.53, "unit": "pg/mL"}, {"measurement": "IL-12 secretion of T cells", "setting": "[2]; [3]", "value": 177.50, "unit": "pg/mL"}, {"measurement": "IFN secretion of T cells", "setting": "[2]; [4]", "value": 373.89, "unit": "pg/mL"}, {"measurement": "IL-4 secretion of T cells", "setting": "[2]; [4]", "value": 82.29, "unit": "pg/mL"}, {"measurement": "IL-10 secretion of T cells", "setting": "[2]; [4]", "value": 27.15, "unit": "pg/mL"}, {"measurement": "IL-12 secretion of T cells", "setting": "[2]; [4]", "value": 82.50, "unit": "pg/mL"}]}]}
